Results published in patent US20130190289A1, “COMPOUNDS AND METHODS FOR THE TREATMENT OR PREVENTION OF FLAVIVIRUS INFECTIONS” (priority 2010, published 2013).
Read-outs that look alike come from different tables or passages of the source.

What was measured:
[1] = [3H]Thymidine incorporation assay (cell toxicity); conditions: human
[2] = system: HCV replicon (genotype 1b) in Huh7 cell line ET; assay: microbe, parasite or virus in culture; assay type: cell-based, HCV genotype 1b; conditions: Hepatitis C virus
[3] = Huh-7, read-out: HCV-Replicon-(Luci-ET) 1b_IC50
[4] = Huh-7, 96 h, read-out: HCV-Replicon (Luci-ET)-1b_IC50

CC(CC(=O)N(C)C)N(c1cc(C#CC(C)(C)C)sc1C(=O)O)C(=O)[C@H]1CC[C@H](C)CC1 (relative stereo) [Compound 99, 3-[[3-(Dimethylamino)-1-methyl-3-oxo-propyl]-(trans-4-methylcyclohexanecarbonyl)amino]-5-(3,3-dimethylbut-1-ynyl)thiophene-2-carboxylic acid]
CC50 at 72 h [1]: 10 to 100 µM
IC50 [2, 3]: < 0.1 µM

C[C@@H](CC(=O)N(C)C)N(c1cc(C#CC(C)(C)C)sc1C(=O)O)C(=O)[C@H]1CC[C@H](C)CC1 [Compound 96, 3-((trans)-N—((S)-4-(dimethylamino)-4-oxobutan-2-yl)-4-methylcyclohexanecarboxamido)-5-(3,3-dimethylbut-1-yn-1-yl)thiophene-2-carboxylic acid]
CC50 at 72 h [1]: 10 to 100 µM
IC50 [2, 3]: < 0.1 µM

COC[C@H](C(=O)N(C)C)N(c1cc(C#CC(C)(C)C)sc1C(=O)O)C(=O)[C@H]1CC[C@H](C)CC1 [Compound 22, 3-[[(1R)-2-(dimethylamino)-1-(methoxymethyl)-2-oxo-ethyl]-(trans-4-methylcyclohexanecarbonyl)amino]-5-(3,3-dimethylbut-1-ynyl)thiophene-2-carboxylic acid]
CC50 at 72 h [1]: > 100 µM
IC50 [2, 3]: < 0.1 µM

CCC#Cc1cc(N(CC(=O)N2CCOCC2)C(=O)[C@H]2CC[C@H](C)CC2)c(C(=O)O)s1 [Compound 132, 5-But-1-ynyl-3-[(trans-4-methylcyclohexanecarbonyl)-(2-morpholino-2-oxo-ethyl)amino]thiophene-2-carboxylic acid]
CC50 at 72 h [1]: > 100 µM
IC50 [2, 4]: 0.1 to 1 µM

CC[C@@H](C(=O)N(C)C)N(c1cc(C#CC(C)C)sc1C(=O)O)C(=O)[C@H]1CC[C@H](C)CC1 [Compound 89, 3-[[(1S)-1-(dimethylcarbamoyl)propyl]-(trans-4-methylcyclohexanecarbonyl)amino]-5-(3-methylbut-1-ynyl)thiophene-2-carboxylic acid]
CC50 at 72 h [1]: > 100 µM
IC50 [2, 3]: < 0.1 µM

CC[C@@H](C(=O)N(C)CCO)N(c1cc(C#CC(C)(C)C)sc1C(=O)O)C(=O)[C@H]1CC[C@H](C)CC1 [Compound 77, 5-(3,3-Dimethylbut-1-ynyl)-3-[[(1S)-1-[2-hydroxyethyl(methyl)carbamoyl]propyl]-(trans-4-methylcyclohexanecarbonyl)amino]thiophene-2-carboxylic acid]
CC50 at 72 h [1]: > 100 µM
IC50 [2, 3]: < 0.1 µM

CC[C@@H](C(=O)N1CCCOCC1)N(c1cc(C#CC(C)(C)C)sc1C(=O)O)C(=O)[C@H]1CC[C@H](C)CC1 [Compound 84, 5-(3,3-Dimethylbut-1-ynyl)-3-[(trans-4-methylcyclohexanecarbonyl)-[(1S)-1-(1,4-oxazepane-4-carbonyl)propyl]amino]thiophene-2-carboxylic acid]
CC50 at 72 h [1]: 10 to 100 µM
IC50 [2, 3]: < 0.1 µM

COCCN(C)C(=O)C[C@H](C)N(c1cc(C#CC(C)(C)C)sc1C(=O)O)C(=O)[C@H]1CC[C@H](C)CC1 [Compound 114, 5-(3,3-Dimethylbut-1-ynyl)-3-[[(1S)-3-[2-methoxyethyl(methyl)amino]-1-methyl-3-oxo-propyl]-(trans-4-methylcyclohexanecarbonyl)amino]thiophene-2-carboxylic acid]
CC50 at 72 h [1]: > 100 µM
IC50 [2, 3]: < 0.1 µM

CNC(=O)CN(c1cc(C#CC(C)(C)C)sc1C(=O)O)C(=O)[C@H]1CC[C@H](C)CC1 [Compound 1, 5-(3,3-dimethylbut-1-ynyl)-3-[[2-(methylamino)-2-oxo-ethyl]-(trans-4-methylcyclohexanecarbonyl)amino]thiophene-2-carboxylic acid]
CC50 at 72 h [1]: 10 to 100 µM
IC50 [2, 3]: < 0.1 µM

C[C@@H](C(=O)N1CCC(O)CC1)N(c1cc(C#CC(C)(C)C)sc1C(=O)O)C(=O)[C@H]1CC[C@H](C)CC1 [Compound 20, 5-(3,3-Dimethylbut-1-ynyl)-3-[[(1S)-2-(4-hydroxy-1-piperidyl)-1-methyl-2-oxo-ethyl]-(trans-4-methylcyclohexanecarbonyl)amino]thiophene-2-carboxylic acid]
CC50 at 72 h [1]: > 100 µM
IC50 [2, 3]: < 0.1 µM

CN1CCOC[C@H](N(C(=O)c2ccc(Cl)cc2Cl)c2cc(C#CC(C)(C)C)sc2C(=O)O)C1=O [Compound 147, (S)-5-(3,3-Dimethylbut-1-ynyl)-3-[(2,4-dichlorobenzoyl)-N-(4-methyl-5-oxo-1,4-oxazepan-6-yl)amino]thiophene-2-carboxylic acid]
CC50 at 72 h [1]: > 100 µM
IC50 [2, 4]: 0.1 to 1 µM

CCN1CCCC[C@H](N(C(=O)c2ccc(Cl)cc2Cl)c2cc(C#CC(C)(C)C)sc2C(=O)O)C1=O [Compound 135, (S)-5-(3,3-dimethylbut-1-ynyl)-3-[(2,4-dichlorobenzoyl)-N-(1-ethyl-2-oxoazepan-3-yl)amino]-thiophene-2-carboxylic acid]
CC50 at 72 h [1]: > 100 µM
IC50 [2, 4]: < 0.1 µM

CC(C)N1CC[C@@H](N(c2cc(C#CC(C)(C)C)sc2C(=O)O)C(=O)[C@H]2CC[C@H](C)CC2)C1=O [Compound 141, 5-(3,3-dimethylbut-1-ynyl)-3-[[(3R)-1-isopropyl-2-oxo-pyrrolidin-3-yl]-(trans-4-methylcyclohexanecarbonyl)amino]thiophene-2-carboxylic acid]
CC50 at 72 h [1]: > 100 µM
IC50 [2, 4]: < 0.1 µM

C[C@H]1CC[C@H](C(=O)N(CC(=O)N2CCOCC2)c2cc(C#CC3CC3)sc2C(=O)O)CC1 [Compound 128, 5-(2-cyclopropylethynyl)-3-[(trans-4-methylcyclohexanecarbonyl)-(2-morpholino-2-oxo-ethyl)amino]thiophene-2-carboxylic acid]
CC50 at 72 h [1]: > 100 µM
IC50 [2, 4]: < 0.1 µM

C[C@@H](C(=O)NC1CCCC1)N(c1cc(C#CC(C)(C)C)sc1C(=O)O)C(=O)[C@H]1CC[C@H](C)CC1 [Compound 18, 3-[[(1S)-2-(Cyclopentylamino)-1-methyl-2-oxo-ethyl]-(trans-4-methylcyclohexanecarbonyl)amino]-5-(3,3-dimethylbut-1-ynyl)thiophene-2-carboxylic acid]
CC50 at 72 h [1]: 10 to 100 µM
IC50 [2, 3]: < 0.1 µM

CO[C@@H](C)[C@@H](C(=O)N(C)C)N(c1cc(C#CC(C)(C)C)sc1C(=O)O)C(=O)[C@H]1CC[C@H](C)CC1 [Compound 66, 5-(3,3-Dimethylbut-1-ynyl)-3-[[(1S,2S)-1-(dimethylcarbamoyl)-2-methoxy-propyl]-(trans-4-methylcyclohexanecarbonyl)amino]thiophene-2-carboxylic acid]
CC50 at 72 h [1]: > 100 µM
IC50 [2, 3]: < 0.1 µM

C[C@H](CC(=O)N1CCOCC1)N(c1cc(C#CC(C)(C)C)sc1C(=O)O)C(=O)[C@H]1CC[C@H](C)CC1 [Compound 106, 5-(3,3-Dimethylbut-1-ynyl)-3-[(trans-4-methylcyclohexanecarbonyl)-[(1R)-1-methyl-3-morpholino-3-oxo-propyl]amino]thiophene-2-carboxylic acid]
CC50 at 72 h [1]: > 100 µM
IC50 [2, 3]: < 0.1 µM

CCC[C@@H](C(=O)N(C)C)N(c1cc(C#CC(C)(C)C)sc1C(=O)O)C(=O)[C@H]1CC[C@H](C)CC1 [Compound 68, 5-(3,3-Dimethylbut-1-ynyl)-3-[[(1S)-1-(dimethylcarbamoyl)butyl]-(trans-4-methylcyclohexanecarbonyl)amino]thiophene-2-carboxylic acid]
CC50 at 72 h [1]: 10 to 100 µM
IC50 [2, 3]: < 0.1 µM

CC1CN(C(=O)CN(c2cc(C#CC(C)(C)C)sc2C(=O)O)C(=O)[C@H]2CC[C@H](C)CC2)CCO1 (some centres unmarked) [Compound 26]
CC50 at 72 h [1]: 10 to 100 µM
IC50 [2, 3]: < 0.1 µM

C[C@@H](C(=O)N1CC[C@H](O)C1)N(c1cc(C#CC(C)(C)C)sc1C(=O)O)C(=O)[C@H]1CC[C@H](C)CC1 [Compound 29, 5-(3,3-Dimethylbut-1-ynyl)-3-[[(1S)-2-[(3S)-3-hydroxypyrrolidin-1-yl]-1-methyl-2-oxo-ethyl]-(trans-4-methylcyclohexanecarbonyl)amino]thiophene-2-carboxylic acid]
CC50 at 72 h [1]: > 100 µM
IC50 [2, 3]: < 0.1 µM

COC1CN(C(=O)[C@H](C)N(c2cc(C#CC(C)(C)C)sc2C(=O)O)C(=O)[C@H]2CC[C@H](C)CC2)C1 [Compound 52, 5-(3,3-Dimethylbut-1-ynyl)-3-[[(1S)-2-(3-methoxyazetidin-1-yl)-1-methyl-2-oxo-ethyl]-(trans-4-methylcyclohexanecarbonyl)amino]thiophene-2-carboxylic acid]
CC50 at 72 h [1]: > 100 µM
IC50 [2, 3]: < 0.1 µM

C[C@H]1CC[C@H](C(=O)N(CC(=O)N2CCOCC2)c2cc(-c3ccccc3)sc2C(=O)O)CC1 [Compound 121, 3-[(trans-4-methylcyclohexanecarbonyl)-N-(2-morpholino-2-oxoethyl)amino]-5-phenylthiophene-2-carboxylic acid]
CC50 at 72 h [1]: > 100 µM
IC50 [2, 4]: 1 to 10 µM

C[C@@H](C(=O)N1CCCC1)N(c1cc(C#CC(C)(C)C)sc1C(=O)O)C(=O)[C@H]1CC[C@H](C)CC1 [Compound 9, 5-(3,3-Dimethylbut-1-ynyl)-3-[(trans-4-methylcyclohexanecarbonyl)-[(1S)-1-methyl-2-oxo-2-pyrrolidin-1-yl-ethyl]amino]thiophene-2-carboxylic acid]
CC50 at 72 h [1]: > 100 µM
IC50 [2, 3]: < 0.1 µM

COC1CCN(C(=O)[C@H](C)N(c2cc(C#CC(C)(C)C)sc2C(=O)O)C(=O)[C@H]2CC[C@H](C)CC2)CC1 [Compound 53, 5-(3,3-Dimethylbut-1-ynyl)-3-[[(1S)-2-(4-methoxy-1-piperidyl)-1-methyl-2-oxo-ethyl]-(trans-4-methylcyclohexanecarbonyl)amino]thiophene-2-carboxylic acid]
CC50 at 72 h [1]: > 100 µM
IC50 [2, 3]: < 0.1 µM

CC1(C#Cc2cc(N(CC(=O)N3CCOCC3)C(=O)[C@H]3CC[C@H](C)CC3)c(C(=O)O)s2)CC1 [Compound 144, 3-[(trans-4-methylcyclohexanecarbonyl)-(2-morpholino-2-oxo-ethyl)amino]-5-[2-(1-methylcyclopropyl)ethynyl]thiophene-2-carboxylic acid]
CC50 at 72 h [1]: > 100 µM
IC50 [2, 4]: < 0.1 µM
